ChEMBL document CHEMBL1201862, “PubChem BioAssay data set” (2004)
Activity calls are given as the source filed them.

Key:
[1] = system: INS1; experiment: beta cell apoptosis inhibitors, cytokine rescue, dose response, luminescence, retest (AID 449756); type: functional, cell-based; settings: Rattus norvegicus;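 also: cell death triggered by IL-1 beta plus TNF-alpha plus IFN-gamma mixture; protective hits raise ATP signal compared with cytokine alone wells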
[2] = cytotoxicity toward NIH3T3 fibroblasts, dose response, counter-screen, cell-based, ATP luminescence, mouse fibroblasts (AID 2010); type: functional;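 also: cells exposed to compound for about 90 hours before reading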
[3] = cytotoxicity in HEK-293T NF-kB-Luc cells, dose response, cytotoxicity control for B/T-cell NF-kB inhibitor project, cell-based, uHTS hits (AID 489019); type: functional;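 also: IC50 reflects cytotoxicity as loss of cell viability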
[4] = inhibitors of intracellular T. cruzi replication, confirmation, NIH3T3 host cells, beta-gal luminescence (AID 2044); type: functional, cell-based;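 also: intracellular parasites grown in NIH/3T3 mouse fibroblasts as host cells; luminescent beta-galactosidase reporter signal from transgenic T. cruzi replicating inside host cells; inhibitors lower the luminescence signal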
[5] = system: Jurkat; experiment: antigen receptor-induced NF-kB inhibitors, dose response, Jurkat, luciferase reporter, luminescence, B- and T-cell (AID 489004); type: functional, cell-based; settings: Homo sapiens;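 also: NF-kB luciferase reporter Jurkat cells stimulated with PMA plus ionomycin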
[6] = target: Multidrug resistance protein CDR2 (Candida albicans (strain SC5314 / ATCC MYA-2876) (Yeast), UniProt P78595); experiment: CaCDR2 efflux pump inhibitors in yeast, dose response, S. cerevisiae AD1-8u, singleplex, Cherry Pick2 set (AID 623994); type: functional; settings: read-out: EC50_MICROM
[7] = insulin promoter down-regulators in MIN6 cells, imaging, high-content screening, mouse beta cells (AID 1628); type: functional
[8] = cytotoxicity in MIN6 insulinoma cells, dose response, cytotoxicity control, cell-based, mouse insulinoma (AID 2122); type: functional;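 also: confirmatory high-throughput counterscreen run to flag cytotoxic compounds; mouse MIN-6 beta cells carrying an insulin promoter eGFP reporter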
[9] = target: Procathepsin L (Homo sapiens, UniProt P07711); experiment: cathepsin L inhibitors, dose response, counter-screen for M1/M17 aminopeptidase inhibitor project, biochemical, QFRET, 1536-well (AID 2214)
[10] = target: T1, Probable nicotinate-nucleotide adenylyltransferase (Staphylococcus aureus (strain N315), UniProt P65502); type: functional, Staphylococcus aureus subsp. aureus N315; settings: read-out: IC50_Mean;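 as to IC50 Mean: confirmatory dose-response retesting of NadD inhibitor hits first found in an ultra-high-throughput screen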
[11] = target: Genome polyprotein (dengue virus type 2, UniProt P29990); experiment: Dengue-2 NS5 methyltransferase inhibitors, primary screen, biochemical, confirmation dose response (AID 588689); type: functional
[12] = target: T1, Probable nicotinate-nucleotide adenylyltransferase; type: functional, Staphylococcus aureus subsp. aureus N315
[13] = target: T2, Leucine aminopeptidase (Plasmodium falciparum 3D7, UniProt Q8IL11); experiment: P. falciparum M17LAP inhibitors, primary screen, biochemical, fluorogenic H-Leu-NHMec substrate, 1536-well (AID 1619); type: functional
T2 sequence (Q8IL11 whole entry): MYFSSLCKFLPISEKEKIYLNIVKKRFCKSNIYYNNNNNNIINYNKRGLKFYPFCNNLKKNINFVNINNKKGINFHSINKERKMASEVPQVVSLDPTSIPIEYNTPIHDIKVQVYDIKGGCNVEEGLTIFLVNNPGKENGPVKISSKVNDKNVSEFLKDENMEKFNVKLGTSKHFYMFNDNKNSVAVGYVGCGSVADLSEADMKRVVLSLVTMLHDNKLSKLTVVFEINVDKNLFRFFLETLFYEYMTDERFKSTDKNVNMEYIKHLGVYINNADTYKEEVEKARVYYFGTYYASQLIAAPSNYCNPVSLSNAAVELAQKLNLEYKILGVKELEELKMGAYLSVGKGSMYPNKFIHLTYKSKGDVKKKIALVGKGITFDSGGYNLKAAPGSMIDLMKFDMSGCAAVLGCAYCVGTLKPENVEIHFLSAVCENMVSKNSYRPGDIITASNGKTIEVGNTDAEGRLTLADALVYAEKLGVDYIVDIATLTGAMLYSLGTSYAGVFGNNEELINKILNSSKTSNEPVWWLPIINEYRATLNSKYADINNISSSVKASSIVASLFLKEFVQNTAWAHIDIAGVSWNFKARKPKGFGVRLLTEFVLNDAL

[14] = target: fMet-Leu-Phe receptor (Homo sapiens, UniProt P21462); experiment: FPR ligands, dose response (AID 519); type: functional
[15] = target: T3, Aspartyl aminopeptidase (Plasmodium falciparum 3D7, UniProt Q8I2J3); experiment: Counterscreen for inhibitors of M1 and M17 aminopeptidases: QFRET-based biochemical high throughput dose response assay for inhibitors of the Plasmodium falciparum M18 Aspartyl Aminopeptidase (PFM18AAP). [Related PubChem assays: 1619 (Screening assay (M17LAP inhibitors).), 1445 (Screening assay (M1AAP inhibitors).)]
T3 sequence (Q8I2J3 whole entry): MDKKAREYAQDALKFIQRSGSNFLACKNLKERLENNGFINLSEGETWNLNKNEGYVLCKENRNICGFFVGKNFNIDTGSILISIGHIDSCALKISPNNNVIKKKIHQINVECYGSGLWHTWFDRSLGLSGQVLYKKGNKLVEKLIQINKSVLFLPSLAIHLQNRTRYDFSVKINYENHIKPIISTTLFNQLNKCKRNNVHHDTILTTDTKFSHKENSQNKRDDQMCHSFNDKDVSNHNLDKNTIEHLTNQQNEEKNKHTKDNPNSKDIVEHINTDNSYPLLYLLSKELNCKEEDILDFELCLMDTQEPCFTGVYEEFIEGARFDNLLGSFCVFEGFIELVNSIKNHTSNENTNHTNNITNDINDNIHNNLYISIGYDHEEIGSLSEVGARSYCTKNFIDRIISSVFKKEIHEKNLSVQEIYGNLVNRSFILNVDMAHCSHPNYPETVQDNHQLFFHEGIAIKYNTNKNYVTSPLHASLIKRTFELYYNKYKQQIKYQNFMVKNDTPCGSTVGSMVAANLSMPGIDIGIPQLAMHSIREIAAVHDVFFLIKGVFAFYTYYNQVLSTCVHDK

[16] = target: Long-chain-fatty-acid--AMP ligase FadD28 (Mycobacterium tuberculosis, UniProt P9WQ59); experiment: Fluorescence polarization aasay to screen for inhibitors that compete for the binding of FadD28 to a bisubstrate Measured in Biochemical System Using Plate Reader - 2147-01_Inhibitor_Dose_CherryPick_Activity.; type: functional, Mycobacterium tuberculosis H37Rv
[17] = target: 72 kDa type IV collagenase (Homo sapiens, UniProt P08253); experiment: Dose Response validation of uHTS RPN11 inhibitor hits using a MMP-2 Fluorescence assay.; type: functional
[18] = target: 26S proteasome non-ATPase regulatory subunit 14 (Homo sapiens, UniProt O00487); experiment: inhibition of proteasome subunit RPN11 – biochemical, fluorescence polarization, uHTS hits, confirmation (AID 602368); type: functional
[19] = target: T4, Small ubiquitin-related modifier 1 (Homo sapiens, UniProt P63165); experiment: inhibitors of SUMO1 partner interactions, dose response, biochemical, FRET (AID 624383); type: functional; settings: read-out: IC50_Mean
[20] = target: Prothrombin (Bos taurus, UniProt P00735); experiment: thrombin inhibition, dose response, biochemical, fluorescence polarization, uHTS hits (AID 602369); type: functional
[21] = target: T5, Rac GTPase-activating protein 1 (Homo sapiens, UniProt Q9H0H5); experiment: MgcRacGAP GTPase-activating activity inhibitors, confirmation, biochemical, ADP Hunter fluorescence, primary and confirmatory (AID 624330); type: functional
T5 sequence (Q9H0H5 whole entry): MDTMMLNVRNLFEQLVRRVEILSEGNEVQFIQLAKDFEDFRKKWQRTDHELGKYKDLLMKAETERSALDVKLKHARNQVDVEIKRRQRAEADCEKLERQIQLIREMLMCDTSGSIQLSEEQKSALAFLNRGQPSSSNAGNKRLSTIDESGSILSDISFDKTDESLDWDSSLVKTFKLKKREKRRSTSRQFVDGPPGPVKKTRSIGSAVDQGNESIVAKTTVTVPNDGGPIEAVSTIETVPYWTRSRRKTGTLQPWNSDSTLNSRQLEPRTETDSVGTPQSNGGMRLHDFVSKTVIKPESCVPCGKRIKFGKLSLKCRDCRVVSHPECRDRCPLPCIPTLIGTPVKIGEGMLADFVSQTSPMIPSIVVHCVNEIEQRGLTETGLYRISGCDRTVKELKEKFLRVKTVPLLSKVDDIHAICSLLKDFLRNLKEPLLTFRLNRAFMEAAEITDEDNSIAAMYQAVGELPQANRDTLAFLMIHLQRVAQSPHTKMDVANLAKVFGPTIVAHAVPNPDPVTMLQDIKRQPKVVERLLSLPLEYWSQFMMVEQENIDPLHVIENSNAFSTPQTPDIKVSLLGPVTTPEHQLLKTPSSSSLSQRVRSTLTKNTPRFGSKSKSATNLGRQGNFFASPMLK

[22] = target: T4, Small ubiquitin-related modifier 1; experiment: inhibitors of SUMO1 peptide binding, dose response, biochemical, fluorescence polarization, uHTS hits (AID 624382); type: functional; settings: read-out: IC50_Mean
[23] = AlphaScreen signal interference compounds, dose response, artefact control for ARNT-TACC3 interaction inhibitor project, biochemical, luminescence, cherry-pick (AID 651705); type: functional;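 also: AlphaScreen bead proximity signal that flags compounds interfering with the detection technology; potency reflects signal decrease which marks the compound as an assay artifact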
[24] = target: T6, Sentrin-specific protease 1 (Homo sapiens, UniProt Q9P0U3); experiment: Dose response confirmation of small molecule inhibitors of the catalytic domain of the SUMO protease, SENP1 in a FRET assay.; type: functional; settings: read-out: IC50_Mean
[25] = target: T6, Sentrin-specific protease 1; experiment: potency of human SENP1 inhibitors, dose response, biochemical, kinetic FRET (AID 651697); type: functional; settings: read-out: IC50_Mean

T1 sequence (P65502 whole entry): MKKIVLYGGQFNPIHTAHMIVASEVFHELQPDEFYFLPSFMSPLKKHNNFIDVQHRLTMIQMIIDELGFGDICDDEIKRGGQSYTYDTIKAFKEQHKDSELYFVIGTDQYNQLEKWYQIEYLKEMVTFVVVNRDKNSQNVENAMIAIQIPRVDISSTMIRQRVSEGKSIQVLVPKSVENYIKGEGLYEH
T4 sequence (P63165 whole entry): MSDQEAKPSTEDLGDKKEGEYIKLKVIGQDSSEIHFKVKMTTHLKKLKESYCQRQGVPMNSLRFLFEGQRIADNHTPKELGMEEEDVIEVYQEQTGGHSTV
T6 sequence (Q9P0U3 whole entry, the tested form may be a part): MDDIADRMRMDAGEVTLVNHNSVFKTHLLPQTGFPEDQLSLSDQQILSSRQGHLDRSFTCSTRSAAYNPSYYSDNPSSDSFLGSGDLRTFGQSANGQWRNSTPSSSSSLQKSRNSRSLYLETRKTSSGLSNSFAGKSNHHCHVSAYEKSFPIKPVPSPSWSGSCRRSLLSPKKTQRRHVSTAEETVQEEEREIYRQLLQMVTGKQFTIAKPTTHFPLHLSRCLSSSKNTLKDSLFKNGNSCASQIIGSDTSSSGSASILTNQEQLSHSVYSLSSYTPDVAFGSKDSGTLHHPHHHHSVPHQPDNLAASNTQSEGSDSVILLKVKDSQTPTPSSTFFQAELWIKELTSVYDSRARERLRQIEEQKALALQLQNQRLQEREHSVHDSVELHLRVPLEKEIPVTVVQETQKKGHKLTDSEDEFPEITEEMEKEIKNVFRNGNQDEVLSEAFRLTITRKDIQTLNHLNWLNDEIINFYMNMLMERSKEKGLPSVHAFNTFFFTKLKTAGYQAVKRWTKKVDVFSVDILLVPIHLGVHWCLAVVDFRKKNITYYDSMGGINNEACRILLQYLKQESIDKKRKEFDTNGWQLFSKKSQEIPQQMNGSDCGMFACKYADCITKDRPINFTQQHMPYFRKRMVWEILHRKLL
Sequence of Long-chain-fatty-acid--AMP ligase FadD28 (P9WQ59 whole entry): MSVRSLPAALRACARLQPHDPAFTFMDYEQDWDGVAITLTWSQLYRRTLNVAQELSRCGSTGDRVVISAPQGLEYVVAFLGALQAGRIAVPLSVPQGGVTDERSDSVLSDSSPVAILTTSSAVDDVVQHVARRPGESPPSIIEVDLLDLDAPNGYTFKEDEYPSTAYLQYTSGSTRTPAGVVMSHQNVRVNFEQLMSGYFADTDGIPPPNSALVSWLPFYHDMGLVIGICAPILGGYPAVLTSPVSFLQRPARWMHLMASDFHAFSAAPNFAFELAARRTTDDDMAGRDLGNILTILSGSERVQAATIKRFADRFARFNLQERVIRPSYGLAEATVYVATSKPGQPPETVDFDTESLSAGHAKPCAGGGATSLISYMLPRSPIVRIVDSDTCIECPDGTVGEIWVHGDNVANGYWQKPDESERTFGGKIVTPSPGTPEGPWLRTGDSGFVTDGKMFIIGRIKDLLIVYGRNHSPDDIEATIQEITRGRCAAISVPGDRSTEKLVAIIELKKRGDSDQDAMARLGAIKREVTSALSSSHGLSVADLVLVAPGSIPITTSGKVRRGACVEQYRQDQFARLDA
Sequence of Genome polyprotein (P29990 2492-3391 limits assumed): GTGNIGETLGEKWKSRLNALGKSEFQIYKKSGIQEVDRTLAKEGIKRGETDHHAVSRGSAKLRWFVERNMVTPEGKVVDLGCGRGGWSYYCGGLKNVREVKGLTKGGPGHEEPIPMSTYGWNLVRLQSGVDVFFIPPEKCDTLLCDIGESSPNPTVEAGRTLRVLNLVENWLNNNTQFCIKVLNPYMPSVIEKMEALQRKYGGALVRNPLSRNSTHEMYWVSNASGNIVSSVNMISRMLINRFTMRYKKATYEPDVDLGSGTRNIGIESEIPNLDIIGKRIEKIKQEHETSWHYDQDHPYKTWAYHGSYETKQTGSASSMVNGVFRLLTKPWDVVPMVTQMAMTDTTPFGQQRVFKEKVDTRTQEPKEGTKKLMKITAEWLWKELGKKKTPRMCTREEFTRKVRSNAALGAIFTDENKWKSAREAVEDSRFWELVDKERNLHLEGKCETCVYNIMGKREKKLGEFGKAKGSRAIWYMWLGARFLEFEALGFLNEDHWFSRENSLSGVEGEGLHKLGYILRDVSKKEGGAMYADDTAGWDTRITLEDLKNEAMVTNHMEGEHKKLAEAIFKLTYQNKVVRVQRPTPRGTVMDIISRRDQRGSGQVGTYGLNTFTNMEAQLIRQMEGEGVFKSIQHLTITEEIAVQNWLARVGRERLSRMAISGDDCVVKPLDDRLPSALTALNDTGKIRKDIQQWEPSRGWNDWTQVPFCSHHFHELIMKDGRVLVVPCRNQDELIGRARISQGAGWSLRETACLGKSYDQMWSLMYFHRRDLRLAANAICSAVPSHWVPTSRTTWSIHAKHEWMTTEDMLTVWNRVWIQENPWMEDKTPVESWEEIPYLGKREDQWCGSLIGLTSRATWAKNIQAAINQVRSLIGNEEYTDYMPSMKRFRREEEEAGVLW
Sequence of Procathepsin L (P07711 whole entry): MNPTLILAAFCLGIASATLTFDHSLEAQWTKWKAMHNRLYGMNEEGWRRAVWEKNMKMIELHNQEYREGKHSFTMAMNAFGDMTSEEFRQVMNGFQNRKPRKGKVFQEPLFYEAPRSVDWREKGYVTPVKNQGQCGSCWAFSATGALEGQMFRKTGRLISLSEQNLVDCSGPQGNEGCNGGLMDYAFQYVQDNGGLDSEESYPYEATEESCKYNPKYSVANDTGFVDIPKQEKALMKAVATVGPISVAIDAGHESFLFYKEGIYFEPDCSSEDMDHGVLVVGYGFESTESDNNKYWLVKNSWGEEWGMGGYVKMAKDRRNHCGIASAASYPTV
Sequence of 72 kDa type IV collagenase (P08253 whole entry): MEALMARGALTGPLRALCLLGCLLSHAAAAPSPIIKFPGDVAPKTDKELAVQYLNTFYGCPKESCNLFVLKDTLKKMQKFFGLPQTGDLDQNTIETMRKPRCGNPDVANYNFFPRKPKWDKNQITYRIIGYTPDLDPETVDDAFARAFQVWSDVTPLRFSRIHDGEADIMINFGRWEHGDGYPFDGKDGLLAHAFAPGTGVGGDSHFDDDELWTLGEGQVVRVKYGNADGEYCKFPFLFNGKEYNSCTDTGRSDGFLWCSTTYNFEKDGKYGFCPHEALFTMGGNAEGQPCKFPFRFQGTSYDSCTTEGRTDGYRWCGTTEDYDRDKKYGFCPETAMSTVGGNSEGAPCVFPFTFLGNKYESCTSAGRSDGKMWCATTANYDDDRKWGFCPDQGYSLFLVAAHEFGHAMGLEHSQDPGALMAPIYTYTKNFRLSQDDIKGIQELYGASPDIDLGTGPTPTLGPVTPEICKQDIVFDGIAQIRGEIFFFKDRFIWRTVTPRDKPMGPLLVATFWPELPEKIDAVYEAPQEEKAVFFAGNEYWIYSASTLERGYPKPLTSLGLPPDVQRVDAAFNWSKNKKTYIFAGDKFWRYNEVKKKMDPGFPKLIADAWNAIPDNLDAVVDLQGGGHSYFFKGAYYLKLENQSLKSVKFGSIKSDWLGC
Sequence of fMet-Leu-Phe receptor (P21462 whole entry): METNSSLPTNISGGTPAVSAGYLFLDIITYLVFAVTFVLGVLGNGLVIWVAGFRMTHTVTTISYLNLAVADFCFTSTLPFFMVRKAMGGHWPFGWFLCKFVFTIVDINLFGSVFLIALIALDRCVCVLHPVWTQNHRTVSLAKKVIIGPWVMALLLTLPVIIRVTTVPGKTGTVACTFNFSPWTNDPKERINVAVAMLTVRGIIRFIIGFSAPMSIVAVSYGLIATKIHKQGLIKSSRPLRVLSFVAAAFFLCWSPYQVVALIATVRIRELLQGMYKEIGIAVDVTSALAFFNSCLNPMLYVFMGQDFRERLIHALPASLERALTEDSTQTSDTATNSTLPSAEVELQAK
Sequence of 26S proteasome non-ATPase regulatory subunit 14 (O00487 whole entry): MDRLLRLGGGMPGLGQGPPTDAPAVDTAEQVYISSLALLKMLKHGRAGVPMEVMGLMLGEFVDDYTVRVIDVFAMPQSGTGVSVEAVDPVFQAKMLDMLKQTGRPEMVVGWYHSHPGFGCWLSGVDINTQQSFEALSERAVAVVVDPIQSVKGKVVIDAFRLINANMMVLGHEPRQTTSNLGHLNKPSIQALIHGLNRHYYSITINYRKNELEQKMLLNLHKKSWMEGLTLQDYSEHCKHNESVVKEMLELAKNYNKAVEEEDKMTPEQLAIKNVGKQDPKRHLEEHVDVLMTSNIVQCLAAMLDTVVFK

NC1=NC[C@H](Cc2ccc(O)cc2)N1CCCCC1CCCCC1
AC50 [1]: 2.43 µM (active) | EC50 [2]: > 60 µM (not active) | IC50 [3]: 67.6 µM (inactive) | EC50 [4]: 1.4 µM (active) | IC50 [5]: 8.18 µM (active) | EC50 [6]: 15.9 µM (active) | IC50 [7]: 3.72 µM (active) | IC50 [8]: 4.52 µM (active)

CCOC(=O)c1c(-c2ccc(-c3ccccc3)cc2)csc1NC(=O)C1C2CCC(O2)C1C(=O)O (stereo not given)
IC50 [9]: > 59.6 µM (not active) | IC50 [10]: 15.3 µM (active) | IC50 [11]: 29.6 µM (active) | IC50 [12]: 5.15 µM (active) | IC50 [13]: 6.09 µM (active) | Ki [14]: > 66.7 µM (inactive) | IC50 [15]: 38.5 µM (not active)

CCc1ccc(NC(=S)N(Cc2ccc(Cl)cc2)Cc2ccc(C(=O)O)cc2)cc1
AC50 [16]: > 100 µM (inactive)

CCCc1c(C)nc2ccc(C(=O)O)cc2c1S
IC50 [17]: > 100 µM (inactive) | IC50 [18]: 22.8 µM (active) | IC50 [19]: 18 µM (active) | IC50 [20]: 72.7 µM (active) | IC50 [21]: 72.6 µM (active) | IC50 [22]: > 66.6 µM (inactive)

COCCn1c(-c2ccccc2)cnc1N
AC50 [23]: 115 µM (active)

CC(=O)Oc1ccc(Cl)cc1/C=C/c1ccc2ccccc2n1
IC50 [24]: 2.22 µM (active) | IC50 [25]: 3.28 µM (active)
